# Laboratory results taken from patent publication US20040142978A1, “Aminocyanopyridine inhibitors of mitogen activated protein kinase-activated protein kinase-2” (Pharmacia Corporation, priority 2002, published 2004).
# Counter-ions that a name gives are not always drawn. Like-named read-outs stand apart in the source and are kept apart here.
# Legend:
# [1] = tested on: TNFα release from U937 cells; assay: U937 Cell TNFα Release Assay (LPS-stimulated, TNFα ELISA); assay type: cell-based; conditions: Homo sapiens, read-out: TNFα release assay IC50
# Protocol: The human monocyte-like cell line, U937 (ATCC #CRL-1593.2), is cultured in RPMI1640 media with 10% heat-inactivated fetal calf serum (GIBCO), glutamine and pen/strep at 37° C. and 5% CO2. Differentiation of U937 to monocytic/macrophage-like cells is induced by the addition of phorbol12-myristate 13-acetate (Sigma) at final concentration of 20 ng/ml to a culture of U937 cells at ˜0.5 million cells/ml and incubated for 24 hrs. The cells are centrifuged, washed with PBS and resuspended in fresh media without PMA and incubated for 24 hrs. Cells adherent to the culture flask are harvested by scraping, centrifugation, and resuspended in fresh media to 2 million cells/ml, and 0.2 ml is aliquoted to each of 96 wells in flat-bottom plate. Cells are then incubated for an additional 24 hrs to allow for recovery. The media is removed from the cells, and 0.1 ml of fresh media is added per well. 0.05 ml of serially diluted compound or control vehicle (Media with DMSO) is added to the cells. […] After 1 hr incubation, 0.05 ml of 400 ng/ml LPS (E Coli serotype 0111:B4, Sigma) in media is added for final concentration of 100 ng/ml. Cells are incubated at 37° C. for 4 hrs. After 4 hrs incubation, supernatants are harvest and assayed by ELISA for the presence of TNFα.
# ELISA plates (NUNC-Immuno™ Plate Maxisorb™ Surface) were coated with purified mouse monoclonal IgG1 anti-human TNFα antibody (R&D Systems #MAB610; 1.25 ug/ml in sodium bicarbonate pH 8.0, 0.1 ml/well) and incubated at 4° C. Coating solution was aspirated the following day and wells were blocked with 1 mg/ml gelatin in PBS (plus 1× thimerasol) for 2 days at 4° C. Prior to using, wells were washed 3× with wash buffer (PBS with 0.05% Tween). Cultured media samples were diluted in EIA buffer (5 mg/ml bovine γ-globulin, 1 mg/ml gelatin, 1 ml/l Tween-20, 1 mg/ml thimerasol in PBS), added to wells (0.1 ml/well) in triplicate and allowed to incubate for 1.5 hr at 37° C. in a humidified chamber. Plates were again washed and 0.1 ml/well of a mixture of rabbit anti-human TNFα polyclonal antibodies in EIA buffer (1:400 dilution of Sigma #T8300, and 1:400 dilution of Calbiochem #654250) was added for 1 hr at 37° C. Plates were washed as before and peroxidase-conjugated goat anti-rabbit IgG (H+L) antibody (Jackson lmmunoResearch #111-035-144, 1 ug/ml in EIA buffer, 0.1 ml/well) was added for 45 min. After final washing, plates were developed with peroxidase-ABTS solution (Kirkegaard/Perry #50-66-01, 0.1 ml/well). Enzymatic conversion of ABTS to colored product was measured after 5-30 minutes using a SpectroMax 340 spectrophotometer (Molecular Devices) at 405 nm. TNF levels were quantitated from a recombinant human TNFα (R&D Systems #210-TA-010) standard curve using a quadratic parameter fit generated by SoftMaxPRO software. ELISA sensitivity was approximately 30 pg TNF/ml. IC50 values for compounds were generated using BioAssay Solver.
# [2] = tested on: TNFα production; assay: Lipopolysaccharide (LPS)-Induced TNFα Production (Rat LPS assay, serum TNFα ELISA); assay type: in vivo, Lewis rats; conditions: 20 mpk (IG)
# Protocol: Adult male 225-250 gram Lewis rats (Harlan Sprague-Dawley) were used. Rats were fasted 18 hr prior to oral dosing, and allowed free access to water throughout the experiment. Each treatment group consisted of 5 animals.
# Compounds were prepared as a suspension in a vehicle consisting of 0.5% methylcellulose, 0.025% Tween-20 in PBS. Compounds or vehicle were orally administered in a volume of 1 ml using an 18 gauge gavage needle. LPS (E. coli serotype 0111:B4, Lot #39H4103, Cat. # L-2630, Sigma) was administered 1-4 hr later by injection into the penile vein at a dose of 1 mg/kg in 0.5 ml sterile saline. Blood was collected in serum separator tubes via cardiac puncture 1.5 hr after LPS injection, a time point corresponding to maximal TNFα production. […]
# ELISA plates (NUNC-Immuno™ Plate Maxisorb™ Surface) were coated with 0.1 ml per well of an Protein G purified fraction of a 2.5 ug/ml of hamster anti-mouse/rat TNFα monoclonal antibody TN19.12 (2.5 ug/ml in PBS, 0.1 ml/well). […] Enzymatic conversion of ABTS to colored product was measured after ˜30 minutes using a SpectroMax 340 spectrophotometer (Molecular Devices Corp.) at 405 nm. TNF levels in serum were quantitated from a recombinant rat TNFα (BioSource International, Cat. #PRC3014.) standard curve using a quadratic parameter fit generated by SoftMaxPRO software. […]
# [3] = biological target: Recombinant MAPKAPK2 (MK-2) (Homo sapiens, UniProt P49137); assay: Determination of MK-2 IC50 (anion exchange resin capture assay, phosphorylation of HSP-peptide); assay type: biochemical
# Sequence of Recombinant MAPKAPK2 (MK-2) (P49137 whole entry, species assumed): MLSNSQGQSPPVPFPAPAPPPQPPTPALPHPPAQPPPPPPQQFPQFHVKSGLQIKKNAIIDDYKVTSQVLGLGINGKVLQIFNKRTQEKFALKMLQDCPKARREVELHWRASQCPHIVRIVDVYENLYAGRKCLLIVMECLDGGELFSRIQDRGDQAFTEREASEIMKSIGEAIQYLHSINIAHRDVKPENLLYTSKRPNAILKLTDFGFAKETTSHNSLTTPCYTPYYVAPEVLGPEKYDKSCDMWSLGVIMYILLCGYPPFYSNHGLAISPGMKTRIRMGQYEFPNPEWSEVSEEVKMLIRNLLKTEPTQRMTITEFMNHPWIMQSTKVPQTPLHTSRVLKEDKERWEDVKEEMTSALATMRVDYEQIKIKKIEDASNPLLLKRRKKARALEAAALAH
# Protocol: The phosphorylation of HSP-peptide ([…]) by MAPKAPK2 was measured using an anion exchange resin capture assay method. […] The reaction was terminated and [γ^33P]ATP was removed from solution by the addition of 150 μl of AG 1×8 ion exchange resin in 900 mM sodium formate pH 3.0. A 50 μl aliquot of head volume was removed from the quenched reaction mixture and added to a 96-well plate, 150 μl of Microscint-40 (Packard) was added and the amount of phosphorylated-peptide was determined. Allow the Microscint to sit in the plates for 60 minutes prior to counting.
# Compounds are evaluated as potential inhibitors of the MK2 kinase by measuring their effects on MK2 phosphorylation of the peptide substrate. Compounds may be screened initially at two concentrations prior to determination of IC50 values. Screening results are expressed as percent inhibition at the concentrations of compound tested. For IC50 value determinations, compounds are tested at six concentrations in ten-fold serial dilutions with each concentration tested in triplicate. Results are expressed as IC50 values in micromolar. The assay is performed at a final concentration of 2% DMSO.
# [4] = U-937, U937 cells, LPS 100 ng/ml, 4 hrs
structure (smiles),measurement,setting,value
"N#Cc1c(-c2ccco2)cc(-c2cc[nH]n2)nc1N [Example 106, 2-amino-4-(2-furyl)-6-(1H-pyrazol-3-yl)nicotinonitrile trifluoroacetate]",IC50,[1]; [4],4 µM
"N#Cc1c(N)nc2c(c1-c1ccccc1)CCc1n[nH]cc1-2 [Example 100, 2-amino-4-phenyl-6,8-dihydro-5H-pyrazolo[3,4-h]quinoline-3-carbonitrile bis(trifluoroacetate)]",IC50,[1]; [4],17.7 µM
"N#Cc1c(-c2cnc[nH]2)cc(-c2cccc(O)c2)nc1N [Example 4, 2-amino-6-(3-hydroxyphenyl)-4-(1H-imidazol-5-yl)nicotinonitrile trifluoroacetate]",Rat LPS assay: inhibition of TNFα production,[2],41%
same,IC50,"[1]; U-937, 4 h",7 µM
"CCOCC1Cc2c(nc(N)c(C#N)c2N)O1 (stereo not drawn) [Example 125, trifluoroacetate]",IC50,[3],127 µM
"N#Cc1c(N)nc2c(c1-c1cccc(F)c1F)CCc1[nH]ncc1-2.O=C(O)C(F)(F)F.O=C(O)C(F)(F)F [Example 102, 2-amino-4-(2,3-difluorophenyl)-6,7-dihydro-5H-pyrazolo[3,4-h]quinoline-3-carbonitrile bis(trifluoroacetate)]",Rat LPS assay: inhibition of TNFα production,[2],83%
same,IC50,"[1]; U-937, 4 h",4 µM
"N#Cc1c(-c2ccc(B(O)O)cc2)cc(-c2ccco2)nc1N [Example 88, bis(trifluoroacetate)]",IC50,[3],64.6 µM
"N#Cc1c(N)nc2c(c1-c1ccco1)CCc1cn[nH]c1-2 [Example 105, 8-amino-6-(2-furyl)-4,5-dihydro-1H-pyrazolo[4,3-h]quinoline-7-carbonitrile]",IC50,[1]; [4],0.9 µM
